# Target: T1, KCNT1 (KNa1.1, Slack) (Homo sapiens, UniProt Q5JUK3)
# T1 construct: expressed in transfected cells; host or cells: HEK-TREX (tetracycline-inducible HEK cell line)
# T1 sequence (Q5JUK3 1-1230): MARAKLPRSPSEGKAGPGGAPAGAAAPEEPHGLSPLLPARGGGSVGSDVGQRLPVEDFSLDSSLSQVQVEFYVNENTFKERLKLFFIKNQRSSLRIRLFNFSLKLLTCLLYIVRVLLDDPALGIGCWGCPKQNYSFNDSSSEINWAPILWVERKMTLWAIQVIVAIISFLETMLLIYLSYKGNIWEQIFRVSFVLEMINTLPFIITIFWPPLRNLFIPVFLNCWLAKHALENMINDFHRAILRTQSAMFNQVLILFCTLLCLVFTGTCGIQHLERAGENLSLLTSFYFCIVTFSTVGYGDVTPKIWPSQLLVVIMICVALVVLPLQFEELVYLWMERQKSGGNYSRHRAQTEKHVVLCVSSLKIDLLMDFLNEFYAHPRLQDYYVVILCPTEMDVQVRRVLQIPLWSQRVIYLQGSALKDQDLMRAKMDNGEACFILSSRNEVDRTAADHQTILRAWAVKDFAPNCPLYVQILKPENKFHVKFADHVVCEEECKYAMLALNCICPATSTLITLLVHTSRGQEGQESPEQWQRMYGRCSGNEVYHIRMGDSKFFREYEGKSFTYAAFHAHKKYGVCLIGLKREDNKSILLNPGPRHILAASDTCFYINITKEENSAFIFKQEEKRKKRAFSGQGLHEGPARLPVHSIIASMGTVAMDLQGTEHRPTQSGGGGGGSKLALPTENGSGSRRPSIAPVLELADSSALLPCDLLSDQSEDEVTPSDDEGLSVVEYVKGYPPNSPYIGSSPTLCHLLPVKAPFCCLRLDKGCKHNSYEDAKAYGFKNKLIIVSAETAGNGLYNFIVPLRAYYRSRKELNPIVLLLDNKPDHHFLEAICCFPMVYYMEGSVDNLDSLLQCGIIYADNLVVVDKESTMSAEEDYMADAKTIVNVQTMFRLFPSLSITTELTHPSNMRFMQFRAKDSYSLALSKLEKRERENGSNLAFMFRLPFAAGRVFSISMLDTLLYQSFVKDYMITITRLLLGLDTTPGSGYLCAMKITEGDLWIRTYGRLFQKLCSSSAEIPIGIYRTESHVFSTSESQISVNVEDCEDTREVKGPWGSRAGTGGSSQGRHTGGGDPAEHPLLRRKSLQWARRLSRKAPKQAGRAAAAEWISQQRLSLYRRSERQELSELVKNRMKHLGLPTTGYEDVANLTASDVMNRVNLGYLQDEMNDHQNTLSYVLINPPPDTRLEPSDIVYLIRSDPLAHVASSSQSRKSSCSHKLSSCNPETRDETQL
# Assay: KCNT1 patch clamp assay (SyncroPatch 384PE automated patch clamp)
# Format: cell-based
# Conditions: tetracycline inducible HEK-TREX cell line; perforated patch; step from −80 mV to 0 mV; room temperature; read-out: KCNT1-WT IC50
# Protocol: KCNT1—Patch Clamp Assay Inhibition of KCNT1 (KNa1.1, Slack) was evaluated using a tetracycline inducible cell line (HEK-TREX). Currents were recorded using the SyncroPatch 384PE automated, patch clamp system. Pulse generation and data collection were performed with PatchController384 V1.3.0 and DataController384 V1.2.1 (Nanion Technologies). The access resistance and apparent membrane capacitance were estimated using built-in protocols. Current were recorded in perforated patch mode (10 μM escin) from a population of cells. […] The cells were allowed to recover in the cell hotel prior to experimentation. Currents were recorded at room temperature. […] The extracellular solution was used as the wash, reference and compound delivery solution. […] Escin is made at a 5 mM stock in water, aliquoted, and stored at −20° C. The compound plate was created at 2× concentrated in the extracellular solution. The compound was diluted to 1:2 when added to the recording well. The amount of DMSO in the extracellular solution was held constant at the level used for the highest tested concentration. A holding potential of −80 mV with a 100 ms step to 0 mV was used. […] The average mean current from 3 sweeps was calculated and the % inhibition of each compound was calculated. The % Inhibition as a function of the compound concentration was fit with a Hill equation to derive IC50, slope, min and max parameters.
row,SMILES,IC50 [µM]
1,"C[C@@H](NC(=O)c1cc(C2CC2)nn1C)c1nc(-c2cccc(F)c2)no1 (single isomer, unassigned) [Compound 93]",1 to 20
2,"CC[C@H](NC(=O)c1ccnn1-c1ccccc1)c1nc(-c2ccnc(C)c2)no1 [Compound 215, (S)—N-(1-(3-(2-methylpyridin-4-yl)-1,2,4-oxadiazol-5-yl)propyl)-1-phenyl-1H-pyrazole-5-carboxamide]",1 to 20
3,Cc1nn(C(C)(C)C)cc1C(=O)N[C@@H](C)c1nc(-c2cccc(F)c2)no1 [Compound 150],≤ 1
4,"COC[C@@H](NC(=O)c1cc(C(F)(F)F)nn1C)c1nc(-c2cccc(C)c2)no1 (single isomer, unassigned) [Compound 80]",≤ 1
5,Cn1nc(C(F)(F)F)cc1C(=O)NC(CC#N)c1nc(-c2cccc(F)c2)no1 (stereo not shown) [Compound 141],1 to 20
6,"Cn1nc(C2CC2)cc1C(=O)NC(COCc1ccccc1)c1nc(-c2cccc(F)c2)no1 (stereo not shown) [Compound 58, N-[2-benzyloxy-1-[3-(3-fluorophenyl)-1,2,4-oxadiazol-5-yl]ethyl]-5-cyclopropyl-2-methyl-pyrazole-3-carboxamide]",1 to 20
7,"CCc1cc(-c2noc([C@H](C)NC(=O)c3cc(C(F)(F)F)nn3C)n2)ccn1 [Compound 268, (S)—N-(1-(3-(2-ethylpyridin-4-yl)-1,2,4-oxadiazol-5-yl)ethyl)-1-methyl-3-(trifluoromethyl)-1H-pyrazole-5-carboxamide]",≤ 1
8,"Cn1nc(C2CC2)cc1C(=O)N[C@H](c1nc(-c2cccc(F)c2)no1)C1CC1 (single isomer, unassigned) [Compound 109]",≤ 1
9,"Cn1nc(C2CC2)cc1C(=O)N[C@@H](c1nc(-c2cccc(F)c2)no1)C1CC1 (single isomer, unassigned) [Compound 108]",≤ 1
10,"CC[C@H](NC(=O)OC(C)(C)C)c1nc(-c2ccnc(C3CC3)c2)no1 [Compound 247, tert-butyl (S)-(1-(3-(2-cyclopropylpyridin-4-yl)-1,2,4-oxadiazol-5-yl)propyl)carbamate]",≤ 1
11,"C[C@H](NC(=O)c1cc(C(F)(F)F)nn1C)c1nc(-c2ccnc(OC3CC3)c2)no1 [Compound 207, (S)—N-(1-(3-(2-cyclopropoxypyridin-4-yl)-1,2,4-oxadiazol-5-yl)ethyl)-1-methyl-3-(trifluoromethyl)-1H-pyrazole-5-carboxamide]",≤ 1
12,C[C@H](NC(=O)OCc1ccccc1)c1nc(-c2ccnc(C3CC3)c2)no1 [Compound 273],≤ 1
13,"C[C@H](NC(=O)c1ccnn1Cc1ccccc1)c1nc(-c2ccnc(C3CC3)c2)no1 [Compound 280, (S)-1-benzyl-N-(1-(3-(2-cyclopropylpyridin-4-yl)-1,2,4-oxadiazol-5-yl)ethyl)-1H-pyrazole-5-carboxamide]",≤ 1
14,C[C@H](NC(=O)c1cn(C)nc1C(C)(C)C)c1nc(-c2cccc(F)c2)no1 [Compound 162],1 to 20
15,"C[C@@H](NC(=O)c1cn(C)nc1C(F)F)c1nc(-c2cccc(F)c2)no1 [Compound 187, (R)-3-(difluoromethyl)-N-(1-(3-(3-fluorophenyl)-1,2,4-oxadiazol-5-yl)ethyl)-1-methyl-1H-pyrazole-4-carboxamide]",≥ 20
16,CC(NC(=O)c1cc(C2CC2)nn1C)c1nc(-c2ccc(F)cc2)no1 (stereo not shown) [Compound 8],1 to 20
17,Cn1nc(C(F)(F)F)cc1C(=O)NC(CC(=O)N1CC(O)C1)c1nc(-c2cccc(F)c2)no1 (stereo not shown) [Compound 123],≥ 20

row,SMILES,IC50 [µM]
1,CC(C)C(NC(=O)c1cc(C2CC2)nn1C)c1nc(-c2cccc(F)c2)no1 (stereo not shown) [Compound 45],≤ 1
2,"CC[C@H](NC(=O)c1cc(C)nn1-c1ccccc1)c1nc(-c2ccnc(C)c2)no1 [Compound 218, (S)-3-methyl-N-(1-(3-(2-methylpyridin-4-yl)-1,2,4-oxadiazol-5-yl)propyl)-1-phenyl-1H-pyrazole-5-carboxamide]",≤ 1
3,C[C@H](NC(=O)c1cn(C)nc1C1CCC1)c1nc(-c2cccc(F)c2)no1 [Compound 155],1 to 20
4,Cc1nn(C(C)C)cc1C(=O)N[C@@H](C)c1nc(-c2ccc(F)c(F)c2)no1 [Compound 87],1 to 20
5,"Cc1cccc(-c2noc([C@@H](C)NC(=O)c3cn(C(C)C)nc3C)n2)c1 [Compound 232, 1-isopropyl-3-methyl-N-[(1R)-1-[3-(m-tolyl)-1,2,4-oxadiazol-5-yl]ethyl]pyrazole-4-carboxamide]",≥ 20
6,"C[C@H](NC(=O)c1cc(C(F)(F)F)nn1C)c1nc(-c2ccnc(N3CCCCC3)c2)no1 (single isomer, unassigned) [Compound 209]",≤ 1
7,"CCOc1cc(-c2noc([C@H](C)NC(=O)OC(C)(C)C)n2)ccn1 [Compound 290, tert-butyl (S)-(1-(3-(2-ethoxypyridin-4-yl)-1,2,4-oxadiazol-5-yl)ethyl)carbamate]",≤ 1
8,"C[C@H](NC(=O)c1cc(C(F)F)nn1C)c1nc(-c2ccnc(C3CC3)c2)no1 [Compound 229, (S)—N-(1-(3-(2-cyclopropylpyridin-4-yl)-1,2,4-oxadiazol-5-yl)ethyl)-3-(difluoromethyl)-1-methyl-1H-pyrazole-5-carboxamide]",≤ 1
9,CO[C@H](C)[C@H](NC(=O)c1cc(C(F)(F)F)nn1C)c1nc(-c2cccc(F)c2)no1 [Compound 131],1 to 20
10,"C[C@H](NC(=O)c1cc(C(F)(F)F)nn1C)c1nc(-c2ccnc(CO)c2)no1 [Compound 258, N-[(1S)-1-[3-[2-(hydroxymethyl)-4-pyridyl]-1,2,4-oxadiazol-5-yl]ethyl]-2-methyl-5-(trifluoromethyl)pyrazole-3-carboxamide]",1 to 20
11,Cn1nc(C2CC2)cc1C(=O)NC1(c2nc(-c3cccc(F)c3)no2)CCCCC1 [Compound 66],≤ 1
12,Cn1nc(C(F)(F)F)cc1C(=O)NC1(c2nc(-c3cccc(F)c3)no2)COC1 [Compound 119],≤ 1
13,"CC(NC(=O)c1cc(C(F)(F)F)nn1C)c1nc(-c2cccc(C(=O)N(C)C)c2)no1 (stereo not shown) [Compound 183, N-(1-(3-(3-(dimethylcarbamoyl)phenyl)-1,2,4-oxadiazol-5-yl)ethyl)-1-methyl-3-(trifluoromethyl)-1H-pyrazole-5-carboxamide]",≥ 20
14,"Cn1nc(C(F)(F)F)cc1C(=O)NC(CC(N)=O)c1nc(-c2cccc(F)c2)no1 (single isomer, unassigned) [Compound 128, N-[3-amino-1-[3-(3-fluorophenyl)-1,2,4-oxadiazol-5-yl]-3-oxo-propyl]-2-methyl-5-(trifluoromethyl)pyrazole-3-carboxamide]",≥ 20
15,"C[C@H](NC(=O)c1cc(C(F)(F)F)nn1C)c1nc(-c2ccnc(C3(C)CC3)c2)no1 [Compound 240, (S)-1-methyl-N-(1-(3-(2-(1-methylcyclopropyl)pyridin-4-yl)-1,2,4-oxadiazol-5-yl)ethyl)-3-(trifluoromethyl)-1H-pyrazole-5-carboxamide]",≤ 1
16,"C[C@@H](NC(=O)c1cc(C(F)(F)F)nn1C)c1nc(-c2ccc(F)c(F)c2)no1 (single isomer, unassigned) [Compound 76]",≤ 1
17,Cc1nn(-c2ccc(F)cc2)cc1C(=O)N[C@@H](C)c1nc(-c2cccc(F)c2)no1 [Compound 154],≤ 1
